Measurements published in the supplement of paper PMC11208160.
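Further: IS621 recombinase and bridge RNA in Escherichia coli cells.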

Test: recombinant barcode read abundance after kanamycin selection (control-corrected) (log10(CPM+1)); higher = more efficient recombination; sequences stand for … in AGTGCAGAGAAAATCGGCCAGTTTTCTCTGCCTGCAGTCCGCATGCCGT…AGATTTATGCAGCGGACTGCCTTTCTCCCAAAGTGATAAACCGGACAGTATCATGGACCGGTTTTCCCGGTAATCCGTATTTGCAAGGTTGGTTTCACT; site = the 11-nt target
Summary of the method: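 Reported as log10(CPM+1), each value stands for recombination efficiency. That efficiency is the averaged, control-corrected counts per million of barcodes found at recombinant junctions. Cells from a pooled E. coli library pairing targets with IS621 bridge RNA target-binding loops were plated twice on chloramphenicol/ampicillin LB agar (control) and twice on chloramphenicol/ampicillin/kanamycin with 0.1 mM IPTG.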
For “GGATCTACTTGGGTTCTAACCTGTTGCCT (site GTATCTACTAG)”, the “recombinant barcode read abundance (log10)” value was 0.0262.
With “GGATTGTCTTGGGTTCTAACCTGTTGCTT (site GGATTGTCTAA)” the “recombinant barcode read abundance (log10)” value was 0.742.
For “GGATTGTCTTGGGTTCTAACCTGTTGCTT (site GGCTAGTCTAA)”, the “recombinant barcode read abundance (log10)” value was 0.0862.
With “GGCACAACTTGGGTTCTAACCTGTTGCCT (site GGCACAACTAG)” the “recombinant barcode read abundance (log10)” value was 0.804.
In the case of “GGCACAACTTGGGTTCTAACCTGTTGCCT (site GGCACCACTAG)”, the “recombinant barcode read abundance (log10)” value is reported as 0.0796.
With “GGCACAACTTGGGTTCTAACCTGTTGCCT (site GGCACGACTAG)” the “recombinant barcode read abundance (log10)” value was 0.262.
With “GGCACAACTTGGGTTCTAACCTGTTGCCT (site GGCACTACTAG)” the “recombinant barcode read abundance (log10)” value was 0.0426.
With “GGCACAGCTTGGGTTCTAACCTGTTGCCT (site GGCACAGCTAG)” the “recombinant barcode read abundance (log10)” value was 0.
With “GGCACAGCTTGGGTTCTAACCTGTTGCCT (site GGCACCGCTAG)” the “recombinant barcode read abundance (log10)” value was 0.171.
For “GGCACAGCTTGGGTTCTAACCTGTTGCCT (site GGCACGGCTAG)”, the “recombinant barcode read abundance (log10)” value was 0.067.
In the case of “GGCACAGCTTGGGTTCTAACCTGTTGCCT (site GGCACTGCTAG)”, the “recombinant barcode read abundance (log10)” value is reported as 0.0566.
With “GGCACCACTTGGGTTCTAACCTGTTGCCG (site GGCACCACTCG)” the “recombinant barcode read abundance (log10)” value was 0.295.
In the case of “GGCACCACTTGGGTTCTAACCTGTTGCCG (site TCTTGACCTAA)”, the “recombinant barcode read abundance (log10)” value is reported as 0.251.
For “GGCACCACTTGGGTTCTAACCTGTTGCCT (site GGCACAACTAG)”, the “recombinant barcode read abundance (log10)” value was 0.0402.
With “GGCACCACTTGGGTTCTAACCTGTTGCCT (site GGCACCACTAG)” the “recombinant barcode read abundance (log10)” value was 0.722.
In the case of “GGCACCACTTGGGTTCTAACCTGTTGCCT (site GGCACGACTAG)”, the “recombinant barcode read abundance (log10)” value is reported as 0.0916.
For “GGCACCACTTGGGTTCTAACCTGTTGCCT (site GGCACTACTAG)”, the “recombinant barcode read abundance (log10)” value was 0.0174.
With “GGCACTACTTGGGTTCTAACCTGTTGCCT (site GGCACAACTAG)” the “recombinant barcode read abundance (log10)” value was 0.0867.
With “GGCACTACTTGGGTTCTAACCTGTTGCCT (site GGCACCACTAG)” the “recombinant barcode read abundance (log10)” value was 0.716.
In the case of “GGCACTACTTGGGTTCTAACCTGTTGCCT (site GGCACGACTAG)”, the “recombinant barcode read abundance (log10)” value is reported as 0.166.
In the case of “GGCACTACTTGGGTTCTAACCTGTTGCCT (site GGCACTACTAG)”, the “recombinant barcode read abundance (log10)” value is reported as 0.392.
For “GGCAGCTCTTGGGTTCTAACCTGTTGCTT (site GGCAGATCTAA)”, the “recombinant barcode read abundance (log10)” value was 0.367.
For “GGCAGCTCTTGGGTTCTAACCTGTTGCTT (site GGCAGCTCTAA)”, the “recombinant barcode read abundance (log10)” value was 0.281.
For “GGCAGCTCTTGGGTTCTAACCTGTTGCTT (site GGCAGGTCTAA)”, the “recombinant barcode read abundance (log10)” value was 0.302.
In the case of “GGCAGCTCTTGGGTTCTAACCTGTTGCTT (site GGCAGTTCTAA)”, the “recombinant barcode read abundance (log10)” value is reported as 0.0524.
With “GGCAGTCCTTGGGTTCTAACCTGTTGCCT (site GGCAGTCCTAA)” the “recombinant barcode read abundance (log10)” value was 0.111.
With “GGCAGTCCTTGGGTTCTAACCTGTTGCCT (site GGCAGTCCTAG)” the “recombinant barcode read abundance (log10)” value was 0.206.
For “GGCATCCCTTGGGTTCTAACCTGTTGCTA (site GGCATCCCTTA)”, the “recombinant barcode read abundance (log10)” value was 0.654.
In the case of “GGCATCCCTTGGGTTCTAACCTGTTGCTA (site TTACAGGCTCG)”, the “recombinant barcode read abundance (log10)” value is reported as 0.205.
In the case of “GGCATTCCTTGGGTTCTAACCTGTTGCCT (site GGCACTCCTAG)”, the “recombinant barcode read abundance (log10)” value is reported as 0.0331.
In the case of “GGCATTCCTTGGGTTCTAACCTGTTGCCT (site GGCATTCCTAG)”, the “recombinant barcode read abundance (log10)” value is reported as 0.0435.
In the case of “GGCCTCCCTTGGGTTCTAACCTGTTGCCT (site GGCATCCCTAG)”, the “recombinant barcode read abundance (log10)” value is reported as 0.242.
For “GGCCTCCCTTGGGTTCTAACCTGTTGCCT (site GGCCTCCCTAG)”, the “recombinant barcode read abundance (log10)” value was 0.977.
For “GGCCTCCCTTGGGTTCTAACCTGTTGCCT (site GGCGTCCCTAG)”, the “recombinant barcode read abundance (log10)” value was 0.947.
For “GGCCTCCCTTGGGTTCTAACCTGTTGCCT (site GGCTTCCCTAG)”, the “recombinant barcode read abundance (log10)” value was 0.0579.
For “GGCCTGCCTTGGGTTCTAACCTGTTGCCT (site GGCCTGCCTAG)”, the “recombinant barcode read abundance (log10)” value was 1.31.
In the case of “GGCCTGCCTTGGGTTCTAACCTGTTGCCT (site GTCATGCCTAG)”, the “recombinant barcode read abundance (log10)” value is reported as 0.0864.
In the case of “GGCGAACCTTGGGTTCTAACCTGTTGCAT (site GACGATCCTAT)”, the “recombinant barcode read abundance (log10)” value is reported as 0.126.
With “GGCGAACCTTGGGTTCTAACCTGTTGCAT (site GGCGAACCTAT)” the “recombinant barcode read abundance (log10)” value was 1.82.
For “GGCGGTACTTGGGTTCTAACCTGTTGCCT (site GGCGGTACTAG)”, the “recombinant barcode read abundance (log10)” value was 1.12.
For “GGCGGTACTTGGGTTCTAACCTGTTGCCT (site GGCTGCACTAG)”, the “recombinant barcode read abundance (log10)” value was 0.197.
With “GGCGTCCCTTGGGTTCTAACCTGTTGCCT (site GGCATCCCTAG)” the “recombinant barcode read abundance (log10)” value was 0.284.
With “GGCGTCCCTTGGGTTCTAACCTGTTGCCT (site GGCCTCCCTAG)” the “recombinant barcode read abundance (log10)” value was 0.286.
With “GGCGTCCCTTGGGTTCTAACCTGTTGCCT (site GGCGTCCCTAG)” the “recombinant barcode read abundance (log10)” value was 1.3.
For “GGCGTCCCTTGGGTTCTAACCTGTTGCCT (site GGCTTCCCTAG)”, the “recombinant barcode read abundance (log10)” value was 0.0801.
In the case of “GGCTAGCCTTGGGTTCTAACCTGTTGCCT (site GGCTAGCCTAG)”, the “recombinant barcode read abundance (log10)” value is reported as 0.423.
With “GGCTAGCCTTGGGTTCTAACCTGTTGCCT (site TGTTAGCCTAG)” the “recombinant barcode read abundance (log10)” value was 0.
For “GGCTCCTCTTGGGTTCTAACCTGTTGCAT (site GGATCCTCTAT)”, the “recombinant barcode read abundance (log10)” value was 0.0148.
In the case of “GGCTCCTCTTGGGTTCTAACCTGTTGCAT (site GGCTCCTCTAT)”, the “recombinant barcode read abundance (log10)” value is reported as 0.907.
In the case of “GGCTCCTCTTGGGTTCTAACCTGTTGCCA (site GGCTCCTCTTG)”, the “recombinant barcode read abundance (log10)” value is reported as 0.674.
In the case of “GGCTCCTCTTGGGTTCTAACCTGTTGCCA (site GGTTCATCTTG)”, the “recombinant barcode read abundance (log10)” value is reported as 0.013.
In the case of “GGCTGCCCTTGGGTTCTAACCTGTTGCCT (site GACTGCCCTAG)”, the “recombinant barcode read abundance (log10)” value is reported as 0.156.
With “GGCTGCCCTTGGGTTCTAACCTGTTGCCT (site GCCTGCCCTAG)” the “recombinant barcode read abundance (log10)” value was 0.57.
For “GGCTGCCCTTGGGTTCTAACCTGTTGCCT (site GGCTGCCCTAG)”, the “recombinant barcode read abundance (log10)” value was 0.258.
For “GGCTGCCCTTGGGTTCTAACCTGTTGCCT (site GTCTGCCCTAG)”, the “recombinant barcode read abundance (log10)” value was 0.149.
For “GGGAACCCTTGGGTTCTAACCTGTTGCTC (site GGGAACCCTAA)”, the “recombinant barcode read abundance (log10)” value was 0.131.
With “GGGAACCCTTGGGTTCTAACCTGTTGCTC (site GGGAACCCTCA)” the “recombinant barcode read abundance (log10)” value was 0.659.
With “GGGAACCCTTGGGTTCTAACCTGTTGCTC (site GGGAACCCTGA)” the “recombinant barcode read abundance (log10)” value was 1.16.
For “GGGAACCCTTGGGTTCTAACCTGTTGCTC (site GGGAACCCTTA)”, the “recombinant barcode read abundance (log10)” value was 0.509.
With “GGGAACCCTTGGGTTCTAACCTGTTGCTT (site GGGAACCCTAA)” the “recombinant barcode read abundance (log10)” value was 1.25.
For “GGGAACCCTTGGGTTCTAACCTGTTGCTT (site GGGAACCCTCA)”, the “recombinant barcode read abundance (log10)” value was 0.386.
With “GGGAACCCTTGGGTTCTAACCTGTTGCTT (site GGGAACCCTGA)” the “recombinant barcode read abundance (log10)” value was 0.0941.
With “GGGAACCCTTGGGTTCTAACCTGTTGCTT (site GGGAACCCTTA)” the “recombinant barcode read abundance (log10)” value was 0.149.
For “GGGAAGACTTGGGTTCTAACCTGTTGCCT (site GGAAAGACTAG)”, the “recombinant barcode read abundance (log10)” value was 1.56.
For “GGGAAGACTTGGGTTCTAACCTGTTGCCT (site GGCAAGACTAG)”, the “recombinant barcode read abundance (log10)” value was 0.0845.
In the case of “GGGAAGACTTGGGTTCTAACCTGTTGCCT (site GGGAAGACTAG)”, the “recombinant barcode read abundance (log10)” value is reported as 2.55.
For “GGGAAGACTTGGGTTCTAACCTGTTGCCT (site GGTAAGACTAG)”, the “recombinant barcode read abundance (log10)” value was 0.333.
For “GGGAATGCTTGGGTTCTAACCTGTTGCCT (site GGGAACGCTAG)”, the “recombinant barcode read abundance (log10)” value was 0.108.
With “GGGAATGCTTGGGTTCTAACCTGTTGCCT (site GGGAATGCTAG)” the “recombinant barcode read abundance (log10)” value was 2.35.
For “GGGACAGCTTGGGTTCTAACCTGTTGCCT (site GAGACAACTAG)”, the “recombinant barcode read abundance (log10)” value was 0.15.
For “GGGACAGCTTGGGTTCTAACCTGTTGCCT (site GGGACAGCTAG)”, the “recombinant barcode read abundance (log10)” value was 1.12.
With “GGGACCTCTTGGGTTCTAACCTGTTGCGT (site GGGACCTCTAC)” the “recombinant barcode read abundance (log10)” value was 2.68.
For “GGGACCTCTTGGGTTCTAACCTGTTGCGT (site GGGACCTCTCC)”, the “recombinant barcode read abundance (log10)” value was 0.201.
With “GGGACGCCTTGGGTTCTAACCTGTTGCAT (site GAGCCGCCTAT)” the “recombinant barcode read abundance (log10)” value was 0.0802.
For “GGGACGCCTTGGGTTCTAACCTGTTGCAT (site GGGACGCCTAT)”, the “recombinant barcode read abundance (log10)” value was 1.17.
With “GGGATACCTTGGGTTCTAACCTGTTGCTA (site GGGATACCTTA)” the “recombinant barcode read abundance (log10)” value was 1.37.
With “GGGATACCTTGGGTTCTAACCTGTTGCTA (site TATGGTACTAC)” the “recombinant barcode read abundance (log10)” value was 0.292.
